Results filed as inconclusive are left out. Activity calls are given as the source filed them. No rule for the calls is given here.
test system: C. albicans CaCi-8 + fluconazole, Alamar Blue growth, 48 h; test: resistant C. albicans growth inhibition with fluconazole, dose response, CaCi-8 strain, Alamar Blue fluorescence (AID 2423)

Row | Compound | EC50
1 | Oc1ccc(/C=N/N(c2ccccc2)c2ccccc2)c(O)c1O | 10.8 µM
2 | Nc1nsc2ccccc12 | > 15 µM (inactive)
3 | CCCC(=O)NC(c1ccc(C)cc1)c1ccc2cccnc2c1O (configuration not stated) | 0.715 µM
4 | S=C(Nc1ccccc1)Nc1nc2ccccc2n1CCOc1ccc(Cl)cc1 | 0.962 µM
5 | Cc1cc(C)c2nc(NNC(=O)c3cc(-c4cccs4)nc4ccccc34)sc2c1 | 0.804 µM
6 | CC1CCN(Cc2c(C(=O)N/N=C/c3cc(Cl)ccc3O)nnn2-c2nonc2N)CC1 | 0.693 µM
7 | CC(=S)/C=C1\Sc2ccccc2N1C | 5.57 µM
8 | N#CC1CC(c2ccccc2)=NN1c1ccccc1[N+](=O)[O-] (configuration not stated) | 0.404 µM
9 | CCCNC(=O)c1ccc2c(=O)c(O)c(-c3cccc(Br)c3)[nH]c2c1 | 3.04 µM
10 | CC(=O)c1cccc(NC(=S)NC(=O)c2ccc(C)cc2)c1 | 3.85 µM
11 | NC(=O)c1ccc(Nc2nnc(-c3ccc(O)cc3)c3ccccc23)cc1 | 7.93 µM
12 | Oc1cccc(C(Nc2nccs2)c2ccc3cccnc3c2O)c1 (configuration not stated) | 1.39 µM
13 | COc1cccc(/C=N/NC(=O)c2[nH]nc3c2CCc2ccccc2-3)c1O | 0.857 µM
14 | CCOC(=O)CNC(=O)c1sc2ncnc(N3CCc4ccccc4C3)c2c1C | 4.56 µM
15 | CC(=O)c1cc(C#N)c(N2CCCC2)nc1C | > 16 µM (inactive)
16 | O=C(N/N=C/c1cc([N+](=O)[O-])ccc1O)c1ccc(COc2ccc3c(c2)CCC3)o1 | 0.915 µM
17 | CCCOc1ccc(C(=O)NNC(=S)NC(=O)CC)cc1 | 0.937 µM
18 | Cc1ccc(NC(=O)CNC(=O)c2ccc(Oc3ccccc3)cc2)nc1 | 0.44 µM
19 | Cc1ccc(C)c(-c2nnc(NC(=O)c3ccco3)o2)c1 | 0.957 µM
20 | COc1ccc(C[C@H]2NC[C@H](O)[C@H]2OC(C)=O)cc1 | 1.48 µM
21 | Cc1onc(-c2ccccc2Cl)c1C(=O)Nc1sc2c(c1C#N)CCC2 | < 0.12 µM
22 | CC(=O)c1ncnn1CC(=O)c1ccc(Cl)cc1Cl | > 16 µM (inactive)
23 | O=C(/C=C/c1cccs1)NC(=S)NNC(=O)c1ccccc1O | 8.54 µM

Row | Compound | EC50
24 | Cc1nn(-c2ccccc2)c(N2CCCC2)c1/C=N/NC(=O)c1ccccc1O | > 15 µM (inactive)
25 | O=C(COc1ccc2c(c1)CCC2)NCc1cccc(Cl)c1 | 10.9 µM
26 | O=C(Nc1nnc(SCc2ccc(Cl)cc2)s1)c1cnccn1 | 1.55 µM
27 | CC(C)(C)c1ccc(OCc2ccc(C(=O)N/N=C/c3ccc(O)c(O)c3)cc2)cc1 | 3.08 µM
28 | O=C(N/N=C/c1ccc(Cl)cc1Cl)Nc1ccccc1 | > 16 µM (inactive)
29 | CS(=O)(=O)NN1C(=O)c2ccccc2NC1c1cccc2cccnc12 (configuration not stated) | 2.13 µM
30 | Cc1nc(NS(=O)(=O)c2ccc(Br)cc2)c2c3c(sc2n1)CCC3 | > 16 µM (inactive)
31 | CCOC(=O)c1ccc(-c2ccc(C3Nc4ccccc4C(=O)N3O)o2)cc1 (configuration not stated) | 5.63 µM
32 | CCCCCCCCCCCCCCCC[N+](C)(C)C | > 15 µM (inactive)
33 | CCCOc1cccc(-c2cc(C(=O)NNC(=S)NCC)c3ccccc3n2)c1 | 0.891 µM
34 | O=C(Oc1c(CN2CCOCC2)cc(Cl)c2cccnc12)c1ccc(F)cc1 | 3.11 µM
35 | CCOC(=O)N1CCN(Cc2ccc(O)c3ncccc23)CC1 | 12.5 µM
36 | COc1ccc(NC(=O)NNC(=O)c2cc3ccccc3cc2O)cc1 | > 16 µM (inactive)
37 | CC(C)(C)c1ccc(SCC(N)=O)cc1 | > 15 µM (inactive)
38 | CCn1c(/C=C/c2ccc([N+](=O)[O-])o2)nc2ccccc2c1=O | < 0.12 µM
39 | COc1ccc(NC(=O)/C(C#N)=C\c2ccc(N3CCOCC3)o2)cc1 | 3.76 µM
40 | C[n+]1c(-c2ccccc2)c2cc(N)ccc2c2ccc(N)cc21 | > 16 µM (inactive)
41 | O=[N+]([O-])c1ccc(N2CCN(Cc3ccc([N+](=O)[O-])o3)CC2)cc1 | 1.65 µM
42 | CNC(=S)/N=C/NOCc1ccc(Cl)cc1Cl | 0.46 µM
43 | O=C(NNC(=O)c1cc2ccccc2cc1O)Nc1ccccc1F | > 16 µM (inactive)
44 | COCCNC(=O)C(c1ccc(C)o1)N(CCOC)C(=O)Cn1nnc2ccccc21 (configuration not stated) | > 15 µM (inactive)
45 | CCCC(=O)NC(c1ccc(C(C)C)cc1)c1ccc2cccnc2c1O (configuration not stated) | 0.659 µM
46 | CCN(CC)C(=O)Cn1c(=O)n(-c2ccccc2)c(=O)c2c3c(sc21)CCC3 | > 16 µM (inactive)

Row | Compound | EC50
47 | O=C(NC1CCCCC1)C(c1ccc(Cl)cc1)N(C(=O)c1cnccn1)c1ccc2c(c1)OCO2 (configuration not stated) | 9.72 µM
48 | CCC(=O)NC(c1cccs1)c1cc(Cl)c2cccnc2c1O (configuration not stated) | 0.372 µM
49 | O=C(c1ccc(Cn2c(=O)[nH]c3ccccc3c2=O)cc1)N1CCN(c2ccc(F)cc2)CC1 | 3.25 µM
50 | COc1ccc(-c2cc(C3CCN(Cc4cccc(C(F)(F)F)c4)CC3)[nH]n2)cc1 | 8.13 µM
51 | O=C(c1ccccc1)c1ccc2nc(-c3ccc(NC(=O)c4ccccc4Br)cc3)[nH]c2c1 | 0.377 µM
52 | C/C(=N\NC(=O)c1cccc(N/N=C(\C)c2cc(O)ccc2O)c1)c1cc(O)ccc1O | > 15 µM (inactive)
53 | CC(CC(=O)Nc1ncc([N+](=O)[O-])s1)c1ccccc1 (configuration not stated) | 0.322 µM
54 | COc1ccc(Cl)cc1C(Nc1cccnc1)c1ccc2cccnc2c1O (configuration not stated) | 1.02 µM
55 | C#CC[N+](C)(C)CCCCCCCCCCCC | 8.93 µM
56 | O=C(Nc1nc(=O)c2ccccc2s1)c1ccccc1 | > 15 µM (inactive)
57 | COc1ccccc1OCC(=O)N/N=C/C=C/c1ccc([N+](=O)[O-])o1 | 1.22 µM
58 | CCC(=O)NC(c1cccs1)c1ccc2cccnc2c1O (configuration not stated) | 1.51 µM
59 | CCc1ccc(C2c3[nH]c4ccccc4c3CCN2C(=O)c2ccc(=O)n(C)n2)cc1 (configuration not stated) | 0.339 µM
60 | CCc1nnc(NC(=O)CSc2ncc(-c3ccccc3)n2C)s1 | 1.64 µM
61 | COCc1cc(CN2CCN(C)CC2)c(O)c2ncccc12 | 6.66 µM
62 | Cc1cccc(-n2nc(C(=O)c3ccco3)cc(-c3nc4ccccc4[nH]3)c2=N)c1 | 6.09 µM
63 | O=[N+]([O-])c1cc(Br)c(O)c(/C=N/Nc2nnnn2-c2cccc3ccccc23)c1 | > 15 µM (inactive)
64 | O=C(NNc1nc2ccc(Cl)cc2s1)c1cc(-c2cccs2)nc2ccccc12 | 0.4 µM
65 | O=C(c1cc(COc2cccc(C(F)(F)F)c2)on1)N1CCC(c2ccncc2)CC1 | 2.54 µM
66 | COc1ccc(-c2nnc(NC(=O)c3cc(Cl)ccc3Cl)o2)cc1 | 1.12 µM
67 | Cc1ccc(C)c(OC(=O)c2cncc(Br)c2)c1 | > 16 µM (inactive)
68 | CCCCN(CCCC)S(=O)(=O)c1ccc(C(=O)Nc2nnc(COC)o2)cc1 | > 15 µM (inactive)
69 | CC(=O)c1cnc2cc(-c3cccc(Br)c3)nn2c1C | > 15 µM (inactive)

Row | Compound | EC50
70 | C/C(=N\NC(=O)C1CCCC1)c1ccc(Cl)c(Cl)c1 | > 15 µM (inactive)
71 | COc1cc(-c2nnc(SCc3cc(=O)oc4cc(O)c(O)cc34)o2)cc(OC)c1OC | 4.39 µM
72 | CCN(CC)c1ccc(/C=N/NC(=O)CNC(=O)C2COc3ccccc3O2)c(O)c1 (configuration not stated) | 1.11 µM
73 | O=C(NNC(=S)Nc1ccc(Cl)c(Cl)c1)c1ccccn1 | 1.13 µM
74 | CN(C)C(=O)c1cn(-c2ccccc2)nc1-c1cccs1 | > 16 µM (inactive)
75 | C=C(C)CNC(=S)N/N=C1\CCCCc2ccccc21 | > 16 µM (inactive)
76 | CN(C)c1cc(N/N=C/c2ccc(Cl)cc2)nc(N(C)C)n1 | 0.695 µM
77 | NC(=O)c1c(NC(=O)c2ccncc2)sc2c1CCCC2 | 3.45 µM
78 | O=[N+]([O-])c1ccc(C2[C@H]3C(c4ccccc4)=NC4(CCCC4)N23)cc1 (some centres not stated) | > 15 µM (inactive)
79 | COc1ccc(C2C(C#N)=C(N)Oc3c2ccc2cccnc32)cc1OC (configuration not stated) | 0.952 µM
80 | CC(C)=CCc1cc2c(=O)c3c(O)c4c(cc3oc2c(O)c1O)OC(C)C4(C)C (configuration not stated) | 6.36 µM
81 | CCOc1ccc(-n2c(O)c(/C=N/Nc3nc(C)cc(C)n3)c3ccccc3c2=O)cc1 | > 15 µM (inactive)
82 | O=C(COS(=O)c1ccccc1)Nc1cc(Cl)ccc1N1CCOCC1 (configuration not stated) | 3.11 µM
83 | CCCCCCOC(=O)C[N+](C)(C)CCOC1CC2CCC1(C)C2(C)C (configuration not stated) | 1.16 µM
84 | BrC(=C\c1ccccc1)/C=N/n1cnnc1 | 1.57 µM
85 | O=C(Cc1cnn(-c2ccccc2)c1)c1ccc(O)c(O)c1O | 8.4 µM
86 | C=CCNC(=S)Nc1sc2c(c1C(=O)OCC)CC(C)(CC)OC2 (configuration not stated) | 1.38 µM
87 | CCOc1ccccc1C1C2=C(COC2=O)Nc2cc3c(cc21)OCO3 (configuration not stated) | > 16 µM (inactive)
88 | C/C(=N\NC(=O)c1cc(C2CC2)nc2ccccc12)c1ccc(O)cc1O | 2.12 µM
89 | NNC(=S)Nc1cccc(Cl)c1 | 8.45 µM
90 | Cc1nnc(N/N=C/c2ccccn2)[nH]c1=O | 2.25 µM
91 | O=C(Nc1ccc(N=Nc2ccccc2)c(NC(=O)C2CCCO2)c1)C1CCCO1 (configuration not stated) | 4.77 µM
92 | CCCn1c(Nc2nc3ccccc3n2C)nc2ccccc21 | 1.17 µM

Row | Compound | EC50
93 | Cc1nn(-c2ccccc2)c(Cl)c1/C=C/C(=O)c1ccc(O)cc1 | 1.64 µM
94 | Oc1ccccc1C(Nc1nccs1)c1ccc2cccnc2c1O (configuration not stated) | 2.73 µM
95 | CCc1nn(CCCC(=O)NCc2ccc(C)cc2)c(=O)c2cc3occc3n12 | > 16 µM (inactive)
96 | Cc1cc2c(cc(C(=O)OCC(=O)NCc3ccco3)n2C)s1 | 6.46 µM
97 | COc1ccc(-c2csc(N(CC3CCCO3)C(=O)c3ccco3)n2)cc1 (configuration not stated) | > 16 µM (inactive)
98 | O=C(N/N=C/c1ccc(O)c2ncccc12)c1cccc(Br)c1 | 1.2 µM
99 | Cc1ccc(NC(=S)c2nc3ccccc3[nH]2)cc1 | > 16 µM (inactive)
100 | Nc1nonc1C(=O)N/N=C/c1cc(Br)ccc1O | 9.34 µM
101 | O=C1CS/C(=N\C(=O)N2c3ccccc3Sc3ccccc32)N1 | 1.09 µM
102 | CNC1=C(N(C(C)=O)c2ccc(Br)cc2)C(=O)c2ccccc2C1=O | 0.19 µM
103 | C/C(=N\NC(=O)c1nn(C)c(C)c1Br)c1ccc(NC(=O)C2CCCC2)cc1 | > 15 µM (inactive)
104 | CCCc1nnc(NC(=S)Nc2ccccc2)s1 | 1.34 µM
105 | CCCn1c(N)c(C(=O)COC(=O)c2c(C)noc2C)c(=O)n(C)c1=O | > 15 µM (inactive)
106 | Cc1cc(NCCCn2ccnc2)n2ncc(-c3ccc(Cl)cc3)c2n1 | 1.31 µM
107 | Cc1ccc(C)c(/C=C/C(=O)c2ccccc(=O)c2O)c1 | 1.99 µM
108 | CC(C)(C)c1ccc(Cc2n[nH]c(=S)[nH]c2=O)cc1 | 0.351 µM
109 | COc1ccc(C(=O)C(CN2CCCC2)c2ccccc2)cc1 (configuration not stated) | > 16 µM (inactive)
110 | N=C1/C(=C/c2cccn2-c2ccc([N+](=O)[O-])cc2)C(=O)N=C2SC=CN12 | > 16 µM (inactive)
111 | CCOc1ccc(C(=O)Nc2ccc(Cc3ccncc3)cc2)cc1Br | 3.64 µM
112 | Oc1ccc(CN2CCN(Cc3ccccc3)CC2)c2cccnc12 | > 16 µM (inactive)

From PubChem BioAssay AID2423 (Broad Institute, 2010)
